Legend:
[1] = target: T1, SMARCA4-HiBiT HeLa cells (protein which is expressed from the SMARCA4 gene) (Homo sapiens, UniProt P51532); assay: SMARCA4 degradation assay (HiBiT-fusion HeLa cell line, 24 h, luminescence); type: cell-based
T1 construct: protein which is expressed from the SMARCA2 and SMARCA4 genes; host or cells: HeLa (SMARCA4-HiBiT engineered line)
Description: (§1) SMARCA2 and SMARCA4 Degradation Assay
(§2) Degradation of protein which is expressed from the SMARCA2 and SMARCA4 genes was monitored using engineered HiBiT-fusion HeLa cell lines from Promega. In brief, 384-well white opaque plates (Greiner) were seeded with SMARCA2-HiBiT or SMARCA4-HiBiT HeLa cells at 8,000 cells/well and incubated overnight at 37° C. to allow cell attachment. After overnight incubation, test compounds were added in a 10-point dilution series (typically 10 μM to 300 pM) using a TECAN D300e Digital Dispenser, and plates were subsequently incubated for 24 hours at 37° C. 24-hours post-treatment, protein levels were quantified with the addition of HiBiT lytic buffer, LgBiT protein, and HiBiT substrate, according to manufacturer's specifications. Plates were incubated on an orbital plate shaker for 10 minutes at room temperature. Resulting luminescent values were read out using a ClarioStar plate reader and used to construct dose-response curves and calculation of degradation DC50s (GraphPad Prism).
(§3) Activity of the tested compounds is provided in Table 4 below as follows: A=DC50<0.050 μM; B=0.05 μM<DC50<0.50 μM; C=<0.5 μM<DC50<5.0 μM; D=DC50>5.0 μM. For SMARCA2 and SMARCA4 degradation activity @1 μM, +++=>70%; ++=30-70%; +=<30%.

[2] = target: T2, SMARCA2-HiBiT HeLa cells (protein which is expressed from the SMARCA2 gene) (Homo sapiens, UniProt P51531); assay: SMARCA2 degradation assay (HiBiT-fusion HeLa cell line, 24 h, luminescence); type: cell-based
T2 construct: protein which is expressed from the SMARCA2 and SMARCA4 genes; host or cells: HeLa (SMARCA2-HiBiT engineered line)
T2 sequence (P51531 whole entry, the tested form may be a part): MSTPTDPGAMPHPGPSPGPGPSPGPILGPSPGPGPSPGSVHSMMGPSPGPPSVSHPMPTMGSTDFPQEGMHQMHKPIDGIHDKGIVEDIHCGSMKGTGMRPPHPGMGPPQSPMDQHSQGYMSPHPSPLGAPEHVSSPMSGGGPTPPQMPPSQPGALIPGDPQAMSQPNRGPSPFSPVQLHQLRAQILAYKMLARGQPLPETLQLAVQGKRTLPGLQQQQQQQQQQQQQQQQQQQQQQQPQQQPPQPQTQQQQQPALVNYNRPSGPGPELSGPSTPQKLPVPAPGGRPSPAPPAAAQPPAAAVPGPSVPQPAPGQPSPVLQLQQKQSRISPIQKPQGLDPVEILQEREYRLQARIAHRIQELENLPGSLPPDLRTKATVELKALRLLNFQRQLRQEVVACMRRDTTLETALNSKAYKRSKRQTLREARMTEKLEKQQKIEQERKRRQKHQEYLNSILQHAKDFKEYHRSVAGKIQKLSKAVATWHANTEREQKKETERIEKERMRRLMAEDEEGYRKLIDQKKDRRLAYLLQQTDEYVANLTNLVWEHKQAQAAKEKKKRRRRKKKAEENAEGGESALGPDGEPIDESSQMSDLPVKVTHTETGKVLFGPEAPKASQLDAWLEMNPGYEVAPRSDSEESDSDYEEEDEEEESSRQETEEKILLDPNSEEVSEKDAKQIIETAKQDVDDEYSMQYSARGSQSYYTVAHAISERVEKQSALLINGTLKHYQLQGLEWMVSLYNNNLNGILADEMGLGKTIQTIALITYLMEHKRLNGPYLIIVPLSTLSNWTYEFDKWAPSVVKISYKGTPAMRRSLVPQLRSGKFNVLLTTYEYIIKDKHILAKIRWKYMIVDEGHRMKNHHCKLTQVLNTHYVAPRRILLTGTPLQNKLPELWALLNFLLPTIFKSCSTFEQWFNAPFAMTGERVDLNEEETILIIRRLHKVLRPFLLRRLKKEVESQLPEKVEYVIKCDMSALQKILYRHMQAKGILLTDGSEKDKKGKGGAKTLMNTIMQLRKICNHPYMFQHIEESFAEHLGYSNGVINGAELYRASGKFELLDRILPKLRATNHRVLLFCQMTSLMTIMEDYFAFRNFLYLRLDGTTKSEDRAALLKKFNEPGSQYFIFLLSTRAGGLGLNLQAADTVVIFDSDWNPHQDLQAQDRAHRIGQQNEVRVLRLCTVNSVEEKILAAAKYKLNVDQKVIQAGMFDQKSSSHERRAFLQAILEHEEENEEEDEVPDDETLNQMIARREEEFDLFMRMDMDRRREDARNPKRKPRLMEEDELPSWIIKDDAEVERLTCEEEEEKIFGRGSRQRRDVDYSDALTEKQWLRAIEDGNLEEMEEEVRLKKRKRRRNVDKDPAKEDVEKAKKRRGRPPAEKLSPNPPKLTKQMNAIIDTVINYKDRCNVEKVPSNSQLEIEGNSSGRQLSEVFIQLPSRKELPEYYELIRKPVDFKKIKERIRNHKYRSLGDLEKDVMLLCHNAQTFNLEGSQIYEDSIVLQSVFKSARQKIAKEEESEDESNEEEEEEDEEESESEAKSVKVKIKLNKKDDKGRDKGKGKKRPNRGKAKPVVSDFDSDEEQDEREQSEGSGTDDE
Description: as §1, §2, §3

T1 sequence (P51532 whole entry, the tested form may be a part): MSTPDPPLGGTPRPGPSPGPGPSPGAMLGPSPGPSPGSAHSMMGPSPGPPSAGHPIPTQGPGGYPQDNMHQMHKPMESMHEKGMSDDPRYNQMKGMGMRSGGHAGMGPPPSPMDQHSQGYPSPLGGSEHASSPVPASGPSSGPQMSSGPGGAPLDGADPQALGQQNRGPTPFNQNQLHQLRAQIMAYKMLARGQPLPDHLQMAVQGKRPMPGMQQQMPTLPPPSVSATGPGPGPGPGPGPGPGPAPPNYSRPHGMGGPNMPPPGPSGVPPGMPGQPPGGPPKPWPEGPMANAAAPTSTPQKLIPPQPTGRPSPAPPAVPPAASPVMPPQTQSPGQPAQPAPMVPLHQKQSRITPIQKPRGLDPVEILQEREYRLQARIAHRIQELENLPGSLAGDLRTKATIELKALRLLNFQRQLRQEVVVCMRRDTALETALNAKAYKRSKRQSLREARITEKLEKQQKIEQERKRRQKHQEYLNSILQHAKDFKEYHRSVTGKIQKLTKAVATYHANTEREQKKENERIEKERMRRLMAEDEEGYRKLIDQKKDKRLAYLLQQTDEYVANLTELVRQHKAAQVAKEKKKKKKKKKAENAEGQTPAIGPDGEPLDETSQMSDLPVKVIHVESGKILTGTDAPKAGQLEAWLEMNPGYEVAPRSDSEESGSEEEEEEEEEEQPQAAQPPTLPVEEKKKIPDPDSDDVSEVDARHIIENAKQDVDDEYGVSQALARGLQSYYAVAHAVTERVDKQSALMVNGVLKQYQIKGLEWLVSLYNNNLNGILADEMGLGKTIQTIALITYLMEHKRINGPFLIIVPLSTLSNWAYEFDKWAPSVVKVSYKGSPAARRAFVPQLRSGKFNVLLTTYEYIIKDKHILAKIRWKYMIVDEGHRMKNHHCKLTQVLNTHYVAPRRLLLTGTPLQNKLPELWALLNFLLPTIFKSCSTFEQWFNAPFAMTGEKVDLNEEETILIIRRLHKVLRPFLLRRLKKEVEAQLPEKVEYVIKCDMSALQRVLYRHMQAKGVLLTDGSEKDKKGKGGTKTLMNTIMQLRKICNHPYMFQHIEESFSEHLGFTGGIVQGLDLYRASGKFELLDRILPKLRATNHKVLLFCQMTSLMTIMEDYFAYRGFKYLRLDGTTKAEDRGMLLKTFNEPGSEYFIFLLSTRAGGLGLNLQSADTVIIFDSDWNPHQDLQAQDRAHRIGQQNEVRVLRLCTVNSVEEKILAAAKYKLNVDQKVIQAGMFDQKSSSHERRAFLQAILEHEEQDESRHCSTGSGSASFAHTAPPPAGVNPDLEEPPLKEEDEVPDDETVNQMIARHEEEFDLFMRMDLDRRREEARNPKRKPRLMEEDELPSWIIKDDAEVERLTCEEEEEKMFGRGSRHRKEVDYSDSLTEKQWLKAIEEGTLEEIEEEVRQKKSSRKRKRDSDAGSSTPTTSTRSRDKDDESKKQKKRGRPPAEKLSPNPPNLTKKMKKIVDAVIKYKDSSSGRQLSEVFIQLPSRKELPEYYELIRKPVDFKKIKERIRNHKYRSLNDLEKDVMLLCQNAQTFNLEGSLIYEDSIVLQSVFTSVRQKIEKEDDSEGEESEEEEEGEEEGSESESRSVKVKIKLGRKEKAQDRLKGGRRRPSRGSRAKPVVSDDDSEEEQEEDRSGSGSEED

Row | SMILES | DC50 [1] [nM] | inhibition at 1 µM ([1]; @ 1 μM) [%] | DC50 [2] [nM] | SMARCA2 % Degradation @ 1 μM ([2]; @ 1 μM) | inhibition at 1 µM ([1]; 1 μM) [%] | SMARCA2 % Degradation @ 1 μM ([2]; 1 μM)
1 | C[C@H]1CN(c2ccnc(C#CCNc3ccn(C)n3)n2)CCN1c1cc(-c2ccccc2O)nnc1N [Compound P-328, 0-{5-[(S)-2-methyl-4-{2-[3-(1-methyl-3-pyrazolylamino)-1-propynyl]-4-pyrimidinyl}-1-piperazinyl]-6-amino-3-pyridazinyl}phenol] | 50 to 500 | 30 to 70 | 50 to 500 | ++ (++=30-70%) | – | –
2 | Cc1nn2ccn(CC#Cc3nccc(N4CCN(c5cc(-c6ccccc6O)nnc5N)CC[C@H]4C)n3)c(=O)c2c1C [Compound P-336, 5-[3-(4-{ (R)-4-[3-amino-6-(o-hydroxyphenyl)-4-pyridazinyl]-7-methyl-1,4-diazepan-1-yl}-2-pyrimidinyl)-2-propynyl]-2,3-dimethyl-1,5,7a-triaza-4(5H)-indenone] | 50 to 500 | < 30 | 50 to 500 | ++ (++=30-70%) | – | –
3 | CC(C)(C)OC(=O)N1CCC[C@H]1C#Cc1nccc(N2CCCN(c3cc(-c4ccccc4O)nnc3N)CC2)n1 [Compound P-314, tert-butyl (S)-2-[2-(4-{4-[3-amino-6-(o-hydroxyphenyl)-4-pyridazinyl]-1,4-diazepan-1-yl}-2-pyrimidinyl)ethynyl]-1-pyrrolidinecarboxylate] | 50 to 500 | 30 to 70 | 50 to 500 | – | – | –
4 | CCc1cc(C(=O)NCC#Cc2nccc(N3CCN(c4cc(-c5ccccc5O)nnc4N)CC3)n2)nn1C [Compound P-2, N-[3-(4-{4-[3-amino-6-(2-hydroxyphenyl)pyridazin-4-yl]piperazin-1-yl}pyrimidin-2-yl)prop-2-yn-1-yl]-5-ethyl-1-methyl-1H-pyrazole-3-carboxamide] | 50 to 500 | 30 to 70 | 50 to 500 | ++ (++=30-70%) | – | –
5 | CC(C)(C)OC(=O)NCC#Cc1nccc(N2CCCN(c3cc(-c4ccccc4O)nnc3N)CC2)n1 [Compound P-121, tert-butyl (3-(4-(4-(3-amino-6-(2-hydroxyphenyl)pyridazin-4-yl)-1,4-diazepan-1-yl)pyrimidin-2-yl)prop-2-yn-1-yl)carbamate] | 50 to 500 | > 70 | 50 to 500 | +++ (+++=>70%) | – | –
6 | Cn1cnc(C(=O)NCC#Cc2nccc(N3CCN(c4cc(-c5ccccc5O)nnc4N)CC3)n2)c1 [Compound P-67, N-(3-(4-(4-(3-amino-6-(2-hydroxyphenyl)pyridazin-4-yl)piperazin-1-yl)pyrimidin-2-yl)prop-2-yn-1-yl)-1-methyl-1H-imidazole-4-carboxamide] | 50 to 500 | < 30 | 50 to 500 | + (+=<30%) | – | –
7 | Nc1nnc(-c2ccccc2O)cc1N1CCN(c2ccnc(C#CCNC(=O)c3coc4ccccc34)n2)CC1 [Compound P-55, N-(3-(4-(4-(3-amino-6-(2-hydroxyphenyl)pyridazin-4-yl)piperazin-1-yl)pyrimidin-2-yl)prop-2-yn-1-yl)benzofuran-3-carboxamide] | 50 to 500 | 30 to 70 | 50 to 500 | ++ (++=30-70%) | – | –
8 | Nc1nnc(-c2ccccc2O)cc1N1CCC2(CCN(c3ccnc(C#CCN4CC5CC4C5)n3)CC2)C1 [Compound P-187, o-{6-amino-5-[8-(2-{3-(2-azabicyclo[2.1.1]hex-2-yl)-1-propynyl}-4-pyrimidinyl)-2,8-diaza-2-spiro[4.5]decyl]-3-pyridazinyl}phenol] | 50 to 500 | 30 to 70 | 50 to 500 | ++ (++=30-70%) | – | –
9 | Cc1oncc1C(=O)NCC#Cc1nccc(N2CCN(c3cc(-c4ccccc4O)nnc3N)CC2)n1 [Compound P-3, N-[3-(4-{4-[3-amino-6-(2-hydroxyphenyl)pyridazin-4-yl]piperazin-1-yl}pyrimidin-2-yl)prop-2-yn-1-yl]-5-methyl-1,2-oxazole-4-carboxamide] | 50 to 500 | 30 to 70 | 50 to 500 | ++ (++=30-70%) | – | –
10 | CC(C)(C)OC(=O)NCC#Cc1cccc(N2CCCN(c3cc(-c4ccccc4O)nnc3N)CC2)n1 [Compound P-432, 3-(6-{4-[3-amino-6-(o-hydroxyphenyl)-4-pyridaziny1]-1,4-diazepan-1-yl}-2-pyridyl)-2-propynyl 2-methyl-2-propanecarbamate] | > 5000 | – | 500 to 5000 | – | – | –
11 | CN(C)CC#Cc1nc(N2CCCN(c3cc(-c4ccccc4O)nnc3N)CC2)ccc1C#N [Compound P-385, 6-{4-[3-amino-6-(o-hydroxyphenyl)-4-pyridazinyl]-1,4-diazepan-1-y1}-2-[3-(dimethylamino)-1-propynyl]nicotinonitrile] | 50 to 500 | – | 50 to 500 | – | > 70 | +++ (+++=>70%)
12 | C[C@@H]1CCN(c2cc(-c3ccccc3O)nnc2N)CCN1c1ccnc(/C=C/CN2CCC2)n1 [Compound P-166, o-{5-[(R)-4-{2-[3-(1-azetidinyl)-1-propenyl]-4-pyrimidinyl}-5-methyl-1,4-diazepan-1-yl]-6-amino-3-pyridazinyl}phenol] | 50 to 500 | > 70 | 50 to 500 | +++ (+++=>70%) | – | –
13 | Cc1nn2ccn(CC#Cc3nccc(N4CCN(c5cc(-c6ccccc6O)nnc5N)CC4)n3)c(=O)c2c1C [Compound P-281, 5-[3-(4-{4-[3-amino-6-(o-hydroxyphenyl)-4-pyridazinyl]-1-piperazinyl}-2-pyrimidinyl)-2-propynyl]-2,3-dimethyl-1,5,7a-triaza-4(5H)-indenone] | < 50 | 30 to 70 | < 50 | ++ (++=30-70%) | – | –
14 | Nc1nnc(-c2ccccc2O)cc1N1CCCN(c2ccnc(C#CCNc3cc4ncccn4n3)n2)CC1 [Compound P-120, 2-(6-amino-5-(4-(2-(3-(pyrazolo[1,5-a]pyrimidin-2-ylamino)prop-1-yn-1-yl)pyrimidin-4-yl)-1,4-diazepan-1-yl)pyridazin-3-yl)phenol] | 500 to 5000 | 30 to 70 | 500 to 5000 | ++ (++=30-70%) | – | –
15 | Cc1c(C(=O)NCC#Cc2nccc(N3CCN(c4cc(-c5ccccc5O)nnc4N)CC[C@H]3C)n2)nn(C)c1C [Compound P-239, N-[3-(4-{ (R)-4-[3-amino-6-(o-hydroxyphenyl)-4-pyridazinyl]-7-methyl-1,4-diazepan-1-y1}-2-pyrimidinyl)-2-propynyl]-1-methyl-4,5-dimethyl-3-pyrazolecarboxamide] | 50 to 500 | 30 to 70 | 50 to 500 | ++ (++=30-70%) | – | –
16 | CC(C)(C)OC(=O)NCC#Cc1nccc(N2CCCN(c3cc(-c4ccccc4O)nnc3N)CCC2)n1 [Compound P-304, 4-(5-{2-[3-(tert-butoxycarbonylamino)-1-propynyl]-4-pyrimidinyl}-1,5-diazocan-1-yl)-6-(o-hydroxyphenyl)-3-pyridazinamine] | 50 to 500 | – | 50 to 500 | +++ (+++=>70%) | – | –
17 | Nc1nnc(-c2ccccc2O)cc1N1CC2CC(C1)N2c1ccnc(C#CCN2CC(F)(F)C2)n1 [Compound P-204, o-[6-amino-5-(6-{2-[3-(3,3-difluoro-1-azetidinyl)-1-propynyl]-4-pyrimidinyl}-3,6-diazabicyclo[3.1.1]hept-3-yl)-3-pyridazinyl]phenol] | 500 to 5000 | 30 to 70 | 50 to 500 | ++ (++=30-70%) | – | –
18 | Nc1nnc(-c2ccccc2O)cc1N1CC2CCC(C1)N2c1nc(C#CCn2ccnc2)ncc1F [Compound P-224, o-[6-amino-5-(8-{5-fluoro-2-[3-(1-imidazolyl)-1-propynyl]-4-pyrimidinyl}-3,8-diazabicyclo[3.2.1]oct-3-yl)-3-pyridazinyl]phenol] | 50 to 500 | > 70 | 50 to 500 | +++ (+++=>70%) | – | –
19 | Nc1nnc(-c2ccccc2O)cc1N1CCN(c2ccnc(C#CCCNC(=O)c3cc4ncccn4n3)n2)CC1 [Compound P-94, N-(4-(4-(4-(3-amino-6-(2-hydroxyphenyl)pyridazin-4-yl)piperazin-1-yl)pyrimidin-2-yl)but-3-yn-1-yl)pyrazolo[1,5-a]pyrimidine-2-carboxamide] | 50 to 500 | < 30 | 50 to 500 | ++ (++=30-70%) | – | –
20 | C[C@@H]1CCN(c2cc(-c3ccccc3O)nnc2N)CCN1c1ccnc(C#CCn2cncn2)n1 [Compound P-333, 0-{5-[(R)-5-methyl-4-{2-[3-(1H-1,2,4-triazol-1-yl)-1-propynyl]-4-pyrimidinyl}-1,4-diazepan-1-y1]-6-amino-3-pyridazinyl} phenol] | 50 to 500 | < 30 | 50 to 500 | ++ (++=30-70%) | – | –

Source: US20260265238A1, “COMPOUNDS AND PHARMACEUTICAL COMPOSITIONS THAT DEGRADE SWI/SNF-RELATED MATRIX-ASSOCIATED ACTIN-DEPENDENT REGULATOR OF CHROMATIN SUBFAMILY A” (Plexium, Inc., priority 2023, published 2026)
